The record followed here is PubChem BioAssay (NCI).

Some test systems named below: A549 NSCLC; EKVX NSCLC; HOP-62 NSCLC; HOP-92 NSCLC; KM20L2 colon; LOX IMVI melanoma; M19-MEL melanoma; MCF7 breast; NCI-H23 lung; SK-MEL-5 melanoma; SNB-19 CNS; SW-620 colon; XF 498 CNS.
What all share (experiment): NCI tumour cell line growth inhibition, 48 h

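A five-concentration, 48-hour dose response in 96-well plates underlies each endpoint, interpolated linearly between surrounding concentrations. The concentration for 50% growth inhibition is given as GI50. Definition used: TGI = concentration required for complete inhibition of growth.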 Some results are limits rather than exact numbers.

Regarding `c1ccc2c(c1)SCCc1cn[nH]c1-2`, the TGI with A549 NSCLC, in the assay on EKVX NSCLC, in the assay on HOP-62 NSCLC, in the assay with HOP-92 NSCLC, in the assay with KM20L2 colon and in the assay with LOX IMVI melanoma was over 100 µM each time. The TGI with M19-MEL melanoma, with MCF7 breast, in the assay on NCI-H23 lung, with SK-MEL-5 melanoma, with SNB-19 CNS and in the assay with SW-620 colon was over 100 µM in each case. In addition, the TGI with XF 498 CNS is over 100 µM.
Consider `O=S(O)CCCSSSCCCS(=O)O`, for which the TGI in the assay on EKVX NSCLC, in the assay with HOP-62 NSCLC, with KM20L2 colon, in the assay on LOX IMVI melanoma, in the assay on M19-MEL melanoma and with NCI-H23 lung was over 100 µM throughout. The TGI in the assay on SNB-19 CNS and in the assay with XF 498 CNS was over 100 µM throughout.
As to `CSCC(CO)NC(=O)/C=C/c1c(C)[nH]c(=O)[nH]c1=O` (stereo unspecified), the TGI was over 875 µM in the assay with A549 NSCLC; 872 µM with EKVX NSCLC; over 875 µM with HOP-62 NSCLC; 742 µM with HOP-92 NSCLC; over 875 µM in the assay on KM20L2 colon; over 875 µM in the assay on LOX IMVI melanoma. For the same compound, the TGI with M19-MEL melanoma was over 875 µM; with MCF7 breast, over 609 µM; with NCI-H23 lung, over 875 µM; with SK-MEL-5 melanoma, over 875 µM; in the assay on SNB-19 CNS, over 875 µM; in the assay on SW-620 colon, over 492 µM. In addition, the TGI in the assay on XF 498 CNS amounted to 815 µM.
For the compound `Nc1ccc(Cn2ccc3c4c(N)nc(N)nc4ccc32)cc1`, the TGI in the assay with A549 NSCLC was determined as 15.2 µM; in the assay on EKVX NSCLC, 23.1 µM; in the assay on HOP-62 NSCLC it was 5.09 µM; with HOP-92 NSCLC, 8.7 µM; in the assay with KM20L2 colon, 10.8 µM; in the assay on LOX IMVI melanoma, 1.21 µM. The TGI with M19-MEL melanoma worked out at 5.59 µM; in the assay with MCF7 breast, 14.3 µM; with NCI-H23 lung, 7.86 µM; in the assay on SK-MEL-5 melanoma it was 8.24 µM; in the assay on SNB-19 CNS, 17.6 µM; in the assay on SW-620 colon it was 2.27 µM. The TGI in the assay with XF 498 CNS was determined as 2.9 µM.
In the case of `c1ccc2c(c1)SP1Sc3ccccc3P21` (stereo unspecified), the TGI with A549 NSCLC, in the assay on EKVX NSCLC, with HOP-62 NSCLC, in the assay with HOP-92 NSCLC, in the assay on KM20L2 colon and with LOX IMVI melanoma was over 100 µM in each case. For the same compound, the TGI with M19-MEL melanoma was over 100 µM; in the assay on MCF7 breast, over 100 µM; with NCI-H23 lung, over 100 µM; in the assay with SK-MEL-5 melanoma, over 100 µM; with SNB-19 CNS, over 31.6 µM; with SW-620 colon it was over 100 µM. This compound also showed a TGI with XF 498 CNS of over 100 µM.
For the compound `S=c1[nH]n2c(COc3ccc(Cl)cc3)nnc2s1`, the TGI in the assay with A549 NSCLC, with EKVX NSCLC, with HOP-62 NSCLC, in the assay on HOP-92 NSCLC, in the assay with MCF7 breast and in the assay with NCI-H23 lung was over 100 µM throughout. For the same compound, the TGI with SK-MEL-5 melanoma, with SNB-19 CNS and in the assay with SW-620 colon was over 100 µM each time.
As to `CC1(C)N=C(c2ccccc2)SC12S[C@@H]1CCCC[C@H]1S2`, the TGI in the assay with A549 NSCLC, with EKVX NSCLC, in the assay with HOP-62 NSCLC, in the assay with HOP-92 NSCLC, in the assay with LOX IMVI melanoma and with MCF7 breast was over 100 µM in each case. Further, the TGI with NCI-H23 lung was 31.3 µM; with SK-MEL-5 melanoma it was 54.5 µM; in the assay on SNB-19 CNS it was 32.1 µM; in the assay on SW-620 colon, over 100 µM.
In the case of `CN(C)c1cccc(OC(=O)NCCCl)c1`, the TGI in the assay with A549 NSCLC, in the assay on EKVX NSCLC, in the assay with HOP-62 NSCLC, in the assay with HOP-92 NSCLC, with KM20L2 colon and in the assay with LOX IMVI melanoma was over 100 µM each time. For the same compound, the TGI in the assay on M19-MEL melanoma, in the assay on MCF7 breast, in the assay with NCI-H23 lung, with SK-MEL-5 melanoma, in the assay on SNB-19 CNS and in the assay on SW-620 colon was over 100 µM each time. In the assay with XF 498 CNS, this compound showed a TGI of over 100 µM. The GI50 with HOP-92 NSCLC and in the assay with KM20L2 colon was over 100 µM in each case.
As for `COCCNCc1ccc(-c2cc3nccc(Oc4ccc(NC(=O)C5(C(=O)Nc6ccc(F)cc6)CC5)cc4F)c3s2)nc1`, the GI50 in the assay with A549 NSCLC was 1.71 µM; with HOP-62 NSCLC it was 1.57 µM; in the assay on MCF7 breast, 1.22 µM; in the assay on SW-620 colon, 1.26 µM. Moreover, the TGI in the assay on A549 NSCLC is 4.15 µM; with HOP-62 NSCLC, 3.43 µM; in the assay on MCF7 breast, 3.58 µM; in the assay on SW-620 colon it was 3.27 µM.
As for `Cc1cccc2c1Sc1ccccc1C2NC(=O)CN(C)C` (stereo unspecified), the TGI in the assay on A549 NSCLC is over 100 µM; in the assay on EKVX NSCLC it was over 100 µM; in the assay with HOP-62 NSCLC, over 100 µM; with KM20L2 colon, 37.4 µM; in the assay with LOX IMVI melanoma, over 100 µM; in the assay with M19-MEL melanoma, over 100 µM. For the same compound, the TGI with NCI-H23 lung, with SK-MEL-5 melanoma, in the assay with SNB-19 CNS, in the assay with SW-620 colon and in the assay on XF 498 CNS was over 100 µM throughout.
Regarding `CO/C=C1\OC(=O)C=C1OC`, the TGI in the assay with A549 NSCLC, with EKVX NSCLC, in the assay with HOP-92 NSCLC, with LOX IMVI melanoma, with M19-MEL melanoma and with MCF7 breast was over 100 µM each time. The TGI in the assay on NCI-H23 lung, in the assay with SK-MEL-5 melanoma, with SNB-19 CNS, with SW-620 colon and in the assay with XF 498 CNS was over 100 µM throughout.
For the compound `c1csc(-c2ccc(CNc3c4ccccc4nc4ccccc34)cc2)c1`, the GI50 is 6.29 µM with HOP-62 NSCLC, 1.26 µM with HOP-92 NSCLC and 1.63 µM with SK-MEL-5 melanoma. For the same compound, the figures for the TGI in the assay on HOP-62 NSCLC, in the assay on HOP-92 NSCLC and in the assay with SK-MEL-5 melanoma were 38.4 µM, 2.81 µM and 3.01 µM, respectively.
Take `CN(c1ccccc1)c1nc(=[N+]2CCCC2)ss1`: the TGI in the assay with A549 NSCLC, in the assay with EKVX NSCLC, in the assay with KM20L2 colon, in the assay on SK-MEL-5 melanoma, in the assay with SNB-19 CNS and with SW-620 colon was over 100 µM in each case.
